Reference: patent US9636418B2 (priority 2013, dated 2017)
Where two headings read alike, the source gives them in different places.

What was measured:
Assay in all cases: cell-based
hNav1.7 = hNav1.7 (Homo sapiens, UniProt Q15858); type: cell-based; details: PatchXpress, read-out: PX hNav1.7 Tonic IC50
hNav1.4 = hNav1.4 (Homo sapiens, UniProt P35499); details: for IC50: PatchXpress, read-out: PX hNav1.4 Tonic IC50
hNav1.5 = hNav1.5 (Homo sapiens, UniProt Q14524); details: for IC50: PatchXpress, read-out: PX hNav1.5 Tonic IC50
[1] = * = at high concentrations compound would wash off slowly or not at all

Chain of hNav1.4 (P35499 whole entry): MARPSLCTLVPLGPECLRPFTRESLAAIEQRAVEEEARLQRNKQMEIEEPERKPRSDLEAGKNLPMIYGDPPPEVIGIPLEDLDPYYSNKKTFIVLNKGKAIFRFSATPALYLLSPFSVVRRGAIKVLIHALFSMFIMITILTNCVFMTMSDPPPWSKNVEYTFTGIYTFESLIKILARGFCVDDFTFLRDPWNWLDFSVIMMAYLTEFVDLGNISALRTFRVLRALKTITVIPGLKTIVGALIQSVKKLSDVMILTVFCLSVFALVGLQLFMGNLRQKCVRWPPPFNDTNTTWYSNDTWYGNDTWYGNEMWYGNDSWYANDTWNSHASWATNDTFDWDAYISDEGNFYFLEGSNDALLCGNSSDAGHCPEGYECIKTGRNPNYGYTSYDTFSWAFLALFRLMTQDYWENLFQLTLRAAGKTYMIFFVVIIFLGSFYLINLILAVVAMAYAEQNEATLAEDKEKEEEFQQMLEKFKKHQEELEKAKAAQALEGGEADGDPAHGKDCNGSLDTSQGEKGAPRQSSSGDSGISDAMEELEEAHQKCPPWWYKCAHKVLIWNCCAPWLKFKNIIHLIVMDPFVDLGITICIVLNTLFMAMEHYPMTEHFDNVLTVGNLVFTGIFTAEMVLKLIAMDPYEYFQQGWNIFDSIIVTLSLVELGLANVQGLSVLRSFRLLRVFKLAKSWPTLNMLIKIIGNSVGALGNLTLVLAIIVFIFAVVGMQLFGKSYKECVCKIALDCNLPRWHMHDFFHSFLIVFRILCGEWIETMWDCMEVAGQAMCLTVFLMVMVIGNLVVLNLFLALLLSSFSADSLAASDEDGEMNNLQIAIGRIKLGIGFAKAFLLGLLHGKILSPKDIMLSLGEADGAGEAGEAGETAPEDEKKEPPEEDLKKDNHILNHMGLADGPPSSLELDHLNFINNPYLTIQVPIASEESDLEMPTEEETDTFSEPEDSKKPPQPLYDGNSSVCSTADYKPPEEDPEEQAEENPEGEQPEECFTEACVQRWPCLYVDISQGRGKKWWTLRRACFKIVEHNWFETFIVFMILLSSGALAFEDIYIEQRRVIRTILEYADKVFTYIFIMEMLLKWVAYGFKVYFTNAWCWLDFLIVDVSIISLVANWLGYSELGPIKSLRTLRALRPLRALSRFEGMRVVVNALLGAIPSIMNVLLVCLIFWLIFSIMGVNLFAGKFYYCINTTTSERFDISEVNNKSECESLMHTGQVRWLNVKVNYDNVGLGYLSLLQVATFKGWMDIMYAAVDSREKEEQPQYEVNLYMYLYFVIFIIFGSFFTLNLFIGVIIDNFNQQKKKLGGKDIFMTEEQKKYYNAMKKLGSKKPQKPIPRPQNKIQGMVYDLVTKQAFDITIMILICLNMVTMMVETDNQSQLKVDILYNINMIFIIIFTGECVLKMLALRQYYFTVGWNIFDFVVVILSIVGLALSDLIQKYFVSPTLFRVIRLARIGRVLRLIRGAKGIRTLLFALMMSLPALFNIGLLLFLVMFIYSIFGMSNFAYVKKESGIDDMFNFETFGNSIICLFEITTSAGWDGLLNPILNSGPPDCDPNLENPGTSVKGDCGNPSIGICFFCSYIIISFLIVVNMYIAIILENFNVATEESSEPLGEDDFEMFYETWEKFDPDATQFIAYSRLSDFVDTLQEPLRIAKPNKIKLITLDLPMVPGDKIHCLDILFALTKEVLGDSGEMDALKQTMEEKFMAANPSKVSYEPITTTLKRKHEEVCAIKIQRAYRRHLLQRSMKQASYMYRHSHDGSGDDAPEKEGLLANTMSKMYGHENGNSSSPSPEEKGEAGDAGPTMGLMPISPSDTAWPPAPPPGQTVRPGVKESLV
Chain of hNav1.7 (Q15858 whole entry): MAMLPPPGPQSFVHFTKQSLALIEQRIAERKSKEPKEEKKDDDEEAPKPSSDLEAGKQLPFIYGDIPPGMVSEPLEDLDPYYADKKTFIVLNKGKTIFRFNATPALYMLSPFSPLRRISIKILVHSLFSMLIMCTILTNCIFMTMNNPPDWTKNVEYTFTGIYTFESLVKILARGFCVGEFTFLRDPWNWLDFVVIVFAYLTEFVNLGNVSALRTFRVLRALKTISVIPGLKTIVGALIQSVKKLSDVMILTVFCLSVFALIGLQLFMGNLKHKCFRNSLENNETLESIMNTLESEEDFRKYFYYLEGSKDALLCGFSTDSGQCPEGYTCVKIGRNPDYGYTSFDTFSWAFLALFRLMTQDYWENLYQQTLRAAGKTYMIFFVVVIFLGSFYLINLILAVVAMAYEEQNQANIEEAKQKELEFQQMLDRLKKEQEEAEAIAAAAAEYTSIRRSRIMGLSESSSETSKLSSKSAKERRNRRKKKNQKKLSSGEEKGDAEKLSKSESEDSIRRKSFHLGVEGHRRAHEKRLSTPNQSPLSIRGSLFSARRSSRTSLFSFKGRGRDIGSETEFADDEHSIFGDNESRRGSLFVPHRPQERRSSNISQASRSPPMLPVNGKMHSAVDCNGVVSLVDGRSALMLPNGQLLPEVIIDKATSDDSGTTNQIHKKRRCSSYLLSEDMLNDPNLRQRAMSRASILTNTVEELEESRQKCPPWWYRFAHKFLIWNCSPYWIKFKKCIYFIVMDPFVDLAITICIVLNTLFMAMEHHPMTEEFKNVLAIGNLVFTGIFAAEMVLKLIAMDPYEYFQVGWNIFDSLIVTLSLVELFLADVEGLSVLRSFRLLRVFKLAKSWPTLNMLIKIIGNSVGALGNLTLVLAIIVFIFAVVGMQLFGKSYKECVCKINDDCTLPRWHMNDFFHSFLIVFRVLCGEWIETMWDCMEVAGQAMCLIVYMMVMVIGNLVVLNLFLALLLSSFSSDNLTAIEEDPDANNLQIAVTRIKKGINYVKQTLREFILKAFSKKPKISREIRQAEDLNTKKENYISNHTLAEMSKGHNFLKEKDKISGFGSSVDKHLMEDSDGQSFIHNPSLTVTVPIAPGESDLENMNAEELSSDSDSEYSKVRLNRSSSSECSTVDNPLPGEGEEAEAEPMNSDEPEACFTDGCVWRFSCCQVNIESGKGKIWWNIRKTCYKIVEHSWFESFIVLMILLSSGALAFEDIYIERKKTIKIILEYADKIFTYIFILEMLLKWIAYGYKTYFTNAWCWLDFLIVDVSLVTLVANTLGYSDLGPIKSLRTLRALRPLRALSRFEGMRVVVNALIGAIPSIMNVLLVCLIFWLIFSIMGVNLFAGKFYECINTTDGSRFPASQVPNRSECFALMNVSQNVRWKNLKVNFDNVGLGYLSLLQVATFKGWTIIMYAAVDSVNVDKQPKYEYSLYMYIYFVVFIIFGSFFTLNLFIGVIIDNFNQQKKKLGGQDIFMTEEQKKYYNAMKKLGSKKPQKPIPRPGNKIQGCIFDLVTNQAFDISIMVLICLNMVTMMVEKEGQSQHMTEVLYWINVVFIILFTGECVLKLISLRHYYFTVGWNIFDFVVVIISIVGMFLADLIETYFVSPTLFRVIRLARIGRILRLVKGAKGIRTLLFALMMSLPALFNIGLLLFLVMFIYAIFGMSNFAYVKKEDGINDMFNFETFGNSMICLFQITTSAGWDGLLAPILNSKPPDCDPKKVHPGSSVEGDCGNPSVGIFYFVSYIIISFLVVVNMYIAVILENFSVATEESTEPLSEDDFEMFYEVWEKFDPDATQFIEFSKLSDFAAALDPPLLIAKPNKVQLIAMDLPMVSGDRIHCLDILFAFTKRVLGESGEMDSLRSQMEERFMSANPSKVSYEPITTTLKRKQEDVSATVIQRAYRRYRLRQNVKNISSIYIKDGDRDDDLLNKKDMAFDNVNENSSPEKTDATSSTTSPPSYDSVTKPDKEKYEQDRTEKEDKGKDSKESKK

SMILES	IC50 (hNav1.7; [1])	IC50 (hNav1.4; [1])	Nav1.4/Nav1.7 (hNav1.4; ratio of PX IC50 values)	IC50 (hNav1.5; [1])	Nav1.5/Nav1.7 (hNav1.5; ratio of PX IC50 values)	IC50 (hNav1.7; tonic block)	IC50 (hNav1.4; tonic block)	IC50 (hNav1.5; tonic block)	Nav1.4/Nav1.7 (hNav1.4; ratio of PX tonic IC50 values)	Nav1.5/Nav1.7 (hNav1.5; ratio of PX tonic IC50 values)
CC[C@H](C)[C@H](NC(=O)[C@@H](NC(=O)[C@H](CCCCN)NC(=O)[C@H](CCCNC(=N)N)NC(=O)[C@@H]1CSSC[C@@H]2NC(=O)[C@H](C)NC(=O)[C@H](CCCNC(=N)N)NC(=O)[C@H](CCCCN)NC(=O)[C@H](CO)NC(=O)[C@H](CC(=O)O)NC(=O)[C@@H]3CSSC[C@H](NC(=O)[C@H](C)NC(=O)[C@H](CC(C)C)NC(=O)CNC(=O)[C@H](CCC(=O)O)NC(=O)[C@H](CSSC[C@H](NC(=O)[C@@H](N)Cc4ccc(O)cc4)C(=O)N[C@@H](CCC(N)=O)C(=O)N[C@@H](CCCCN)C(=O)N[C@@H](Cc4c[nH]c5ccccc45)C(=O)N[C@@H](CCSC)C(=O)N[C@@H](Cc4c[nH]c5ccccc45)C(=O)N[C@@H]([C@@H](C)O)C(=O)N3)NC2=O)C(=O)N[C@@H](CCCCN)C(=O)N[C@@H](CC(C)C)C(=O)N[C@@H](Cc2c[nH]c3ccccc23)C(=O)N1)[C@@H](C)CC)C(N)=O [compound 17]	12 nM	100 nM	8	2750 nM	–	–	–	–	–	–
CC[C@H](C)[C@H](NC(=O)[C@@H](NC(=O)[C@H](CCCCN)NC(=O)[C@H](CCCNC(=N)N)NC(=O)[C@@H]1CSSC[C@@H]2NC(=O)[C@H](C)NC(=O)[C@H](CCCNC(=N)N)NC(=O)[C@H](CCCCN)NC(=O)[C@H](CO)NC(=O)[C@H](CC(=O)O)NC(=O)[C@@H]3CSSC[C@H](NC(=O)[C@H](CCCNC(=N)N)NC(=O)[C@H](CC(C)C)NC(=O)CNC(=O)[C@H](CCC(=O)O)NC(=O)[C@H](CSSC[C@H](NC(=O)[C@@H](N)Cc4ccc(O)cc4)C(=O)N[C@@H](CCC(N)=O)C(=O)N[C@@H](CCCCN)C(=O)N[C@@H](Cc4c[nH]c5ccccc45)C(=O)N[C@@H](CCSC)C(=O)N[C@@H](Cc4cccc5ccccc45)C(=O)N[C@@H]([C@@H](C)O)C(=O)N3)NC2=O)C(=O)N[C@@H](CCCCN)C(=O)N[C@@H](CC(C)C)C(=O)N[C@@H](Cc2c[nH]c3ccccc23)C(=O)N1)[C@@H](C)CC)C(N)=O [compound 30]	0.4 nM	0.9 nM	2	1420 nM	–	–	–	–	–	–
CC[C@H](C)[C@H](NC(=O)[C@@H](NC(=O)[C@H](CCCCN)NC(=O)[C@H](CCCNC(=N)N)NC(=O)[C@@H]1CSSC[C@@H]2NC(=O)[C@H](C)NC(=O)[C@H](CCCNC(=N)N)NC(=O)[C@H](CCCCN)NC(=O)[C@H](CO)NC(=O)[C@H](CC(=O)O)NC(=O)[C@@H]3CSSC[C@H](NC(=O)[C@H](CCCNC(=N)N)NC(=O)[C@H](CC(C)C)NC(=O)CNC(=O)[C@H](CCC(=O)O)NC(=O)[C@H](CSSC[C@H](NC(=O)[C@@H](N)CCC(=O)O)C(=O)N[C@@H](CCC(N)=O)C(=O)N[C@@H](CCCCN)C(=O)N[C@@H](Cc4c[nH]c5ccccc45)C(=O)N[C@@H](CCSC)C(=O)N[C@@H](Cc4c[nH]c5ccccc45)C(=O)N[C@@H]([C@@H](C)O)C(=O)N3)NC2=O)C(=O)N[C@@H](CCCCN)C(=O)N[C@@H](CC(C)C)C(=O)N[C@@H](Cc2c[nH]c3ccccc23)C(=O)N1)[C@@H](C)CC)C(N)=O [compound 49]	0.3 nM	8 nM	27	6440 nM	–	–	–	–	–	–
CC[C@H](C)[C@H](NC(=O)[C@H](CCC(=O)O)NC(=O)[C@H](CCCCN)NC(=O)[C@H](CCCNC(=N)N)NC(=O)[C@@H]1CSSC[C@@H]2NC(=O)[C@H](C)NC(=O)[C@H](CCCNC(=N)N)NC(=O)[C@H](CCCCN)NC(=O)[C@H](CO)NC(=O)[C@H](CC(=O)O)NC(=O)[C@@H]3CSSC[C@H](NC(=O)[C@H](CCCNC(=N)N)NC(=O)[C@H](CC(C)C)NC(=O)CNC(=O)[C@H](CCC(=O)O)NC(=O)[C@H](CSSC[C@H](NC(=O)[C@@H](N)Cc4ccc(O)cc4)C(=O)N[C@@H](CCC(N)=O)C(=O)N[C@@H](CCCCN)C(=O)N[C@@H](Cc4c[nH]c5ccccc45)C(=O)N[C@@H](CCSC)C(=O)N[C@@H](Cc4c[nH]c5ccccc45)C(=O)N[C@@H]([C@@H](C)O)C(=O)N3)NC2=O)C(=O)N[C@@H](CCCCN)C(=O)N[C@@H](CC(C)C)C(=O)N[C@@H](Cc2c[nH]c3ccccc23)C(=O)N1)C(N)=O [compound 69]	1 nM	300 nM	300	8800 nM	8800	–	–	–	–	–
C#CC[C@H](N)C(=O)N[C@@H](Cc1ccc(O)cc1)C(=O)N[C@H]1CSSC[C@@H]2NC(=O)[C@@H]3CSSC[C@@H](C(=O)N[C@@H](CCCNC(=N)N)C(=O)N[C@@H](CCCCN)C(=O)N[C@H](C(=O)N[C@H](C(N)=O)[C@@H](C)CC)[C@@H](C)CC)NC(=O)[C@H](Cc4c[nH]c5ccccc45)NC(=O)[C@H](CC(C)C)NC(=O)[C@H](CCCCN)NC(=O)[C@H](CSSC[C@H](NC(=O)[C@H]([C@@H](C)O)NC(=O)[C@H](Cc4c[nH]c5ccccc45)NC(=O)[C@H](CCCC)NC(=O)[C@H](Cc4c[nH]c5ccccc45)NC(=O)[C@H](CCCCN)NC(=O)[C@H](CCC(N)=O)NC1=O)C(=O)N[C@@H](CC(=O)O)C(=O)N[C@@H](CO)C(=O)N[C@@H](CCCCN)C(=O)N[C@@H](CCCNC(=N)N)C(=O)N[C@@H](C)C(=O)N3)NC(=O)[C@H](CCC(=O)O)NC(=O)[C@H](CC(C)C)NC(=O)CNC(=O)[C@H](CCC(=O)O)NC2=O [compound 297]	–	–	–	–	–	1.87 nM	804 nM	1200 nM	–	–
C#CC[C@H](N)C(=O)N[C@@H](Cc1ccc(O)cc1)C(=O)N[C@H]1CSSC[C@@H]2NC(=O)[C@@H]3CSSC[C@@H](C(=O)N[C@@H](CCCNC(=N)N)C(=O)N[C@@H](CCCCN)C(=O)N[C@H](C(=O)N[C@@H](Cc4c[nH]c5ccccc45)C(N)=O)[C@@H](C)CC)NC(=O)[C@H](Cc4c[nH]c5ccccc45)NC(=O)[C@H](CC(C)C)NC(=O)[C@H](CCCCN)NC(=O)[C@H](CSSC[C@H](NC(=O)[C@H]([C@@H](C)O)NC(=O)[C@H](Cc4c[nH]c5ccccc45)NC(=O)[C@H](Cc4ccccc4)NC(=O)[C@H](Cc4c[nH]c5ccccc45)NC(=O)[C@H](CCCCN)NC(=O)[C@H](CCC(N)=O)NC1=O)C(=O)N[C@@H](CC(=O)O)C(=O)N[C@@H](CO)C(=O)N[C@@H](CCCCN)C(=O)N[C@@H](CCCNC(=N)N)C(=O)N[C@@H](C)C(=O)N3)NC(=O)[C@H](CCC(=O)O)NC(=O)[C@H](CC(C)C)NC(=O)CNC(=O)[C@H](CCC(=O)O)NC2=O [compound 298]	–	–	–	–	–	15 nM	661 nM	780 nM	44	52
C#CC[C@H](N)C(=O)N[C@@H](Cc1ccc(O)cc1)C(=O)N[C@H]1CSSC[C@@H]2NC(=O)[C@@H]3CSSC[C@@H](C(=O)N[C@@H](CCCNC(=N)N)C(=O)N[C@@H](CCCCN)C(=O)N[C@H](C(=O)N[C@@H](Cc4c[nH]c5ccccc45)C(N)=O)[C@@H](C)CC)NC(=O)[C@H](Cc4c[nH]c5ccccc45)NC(=O)[C@H](CC(C)C)NC(=O)[C@H](CCCCN)NC(=O)[C@H](CSSC[C@H](NC(=O)[C@H]([C@@H](C)O)NC(=O)[C@H](Cc4c[nH]c5ccccc45)NC(=O)[C@H](CC(C)C)NC(=O)[C@H](Cc4c[nH]c5ccccc45)NC(=O)[C@H](CCCCN)NC(=O)[C@H](CCC(N)=O)NC1=O)C(=O)N[C@@H](CC(=O)O)C(=O)N[C@@H](CO)C(=O)N[C@@H](CCCCN)C(=O)N[C@@H](CCCNC(=N)N)C(=O)N[C@@H](C)C(=O)N3)NC(=O)[C@H](CCC(=O)O)NC(=O)[C@H](CC(C)C)NC(=O)CNC(=O)[C@H](CCC(=O)O)NC2=O [compound 299]	–	–	–	–	–	0.571 nM	1180 nM	1330 nM	–	–
C#CC[C@H](N)C(=O)N[C@@H](Cc1ccc(O)cc1)C(=O)N[C@H]1CSSC[C@@H]2NC(=O)[C@@H]3CSSC[C@@H](C(=O)N[C@@H](CCCNC(=N)N)C(=O)N[C@@H](CCCCN)C(=O)N[C@H](C(=O)N[C@@H](Cc4c[nH]c5ccccc45)C(N)=O)[C@@H](C)CC)NC(=O)[C@H](Cc4c[nH]c5ccccc45)NC(=O)[C@H](CC(C)C)NC(=O)[C@H](CCCCN)NC(=O)[C@H](CSSC[C@H](NC(=O)[C@H]([C@@H](C)O)NC(=O)[C@H](Cc4c[nH]c5ccccc45)NC(=O)[C@H](CCC)NC(=O)[C@H](Cc4c[nH]c5ccccc45)NC(=O)[C@H](CCCCN)NC(=O)[C@H](CCC(N)=O)NC1=O)C(=O)N[C@@H](CC(=O)O)C(=O)N[C@@H](CO)C(=O)N[C@@H](CCCCN)C(=O)N[C@@H](CCCNC(=N)N)C(=O)N[C@@H](C)C(=O)N3)NC(=O)[C@H](CCC(=O)O)NC(=O)[C@H](CC(C)C)NC(=O)CNC(=O)[C@H](CCC(=O)O)NC2=O [compound 300]	–	–	–	–	–	0.818 nM	967 nM	5300 nM	–	–
CCCC[C@@H]1NC(=O)[C@H](Cc2c[nH]c3ccccc23)NC(=O)[C@H](CCCCN)NC(=O)[C@H](CCC(N)=O)NC(=O)[C@@H](NC(=O)[C@@H](N)CCCCN=[N+]=[N-])CSSC[C@@H]2NC(=O)[C@@H]3CSSC[C@@H](C(=O)N[C@@H](CCCNC(=N)N)C(=O)N[C@@H](CCCCN)C(=O)N[C@H](C(=O)N[C@@H](Cc4c[nH]c5ccccc45)C(N)=O)[C@@H](C)CC)NC(=O)[C@H](Cc4c[nH]c5ccccc45)NC(=O)[C@H](CC(C)C)NC(=O)[C@H](CCCCN)NC(=O)[C@H](CSSC[C@H](NC(=O)[C@H]([C@@H](C)O)NC(=O)[C@H](Cc4c[nH]c5ccccc45)NC1=O)C(=O)N[C@@H](CC(=O)O)C(=O)N[C@@H](CO)C(=O)N[C@@H](CCCCN)C(=O)N[C@@H](CCCNC(=N)N)C(=O)N[C@@H](C)C(=O)N3)NC(=O)[C@H](CCC(=O)O)NC(=O)[C@H](CC(C)C)NC(=O)CNC(=O)[C@H](CCC(=O)O)NC2=O [compound 304]	–	–	–	–	–	3.86 nM	1740 nM	2560 nM	–	–
